{"source": "paper PMC7508583", "about": "“Discovery and Preclinical Development of Antigiardiasis Fumagillol Derivatives” (Antimicrobial Agents and Chemotherapy, 2020)", "key": {"human MetAP2": {"molecular_target": "T1, human MetAP2 (Homo sapiens, UniProt P50579)", "T1 construct": "purchased Bio-Techne/R&D Systems", "T1 sequence (P50579 whole entry)": "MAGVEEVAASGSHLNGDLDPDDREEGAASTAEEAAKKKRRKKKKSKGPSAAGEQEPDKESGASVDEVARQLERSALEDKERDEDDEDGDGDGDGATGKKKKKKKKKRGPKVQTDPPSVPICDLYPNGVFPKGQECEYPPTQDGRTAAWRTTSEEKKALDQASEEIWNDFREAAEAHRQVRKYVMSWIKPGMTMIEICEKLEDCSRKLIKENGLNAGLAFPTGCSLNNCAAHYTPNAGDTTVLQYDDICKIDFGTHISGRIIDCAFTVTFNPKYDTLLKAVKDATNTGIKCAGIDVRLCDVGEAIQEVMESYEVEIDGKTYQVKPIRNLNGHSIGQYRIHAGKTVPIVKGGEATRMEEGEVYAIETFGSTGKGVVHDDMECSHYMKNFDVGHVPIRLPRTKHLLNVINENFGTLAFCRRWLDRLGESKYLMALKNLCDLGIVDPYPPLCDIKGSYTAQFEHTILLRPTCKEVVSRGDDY", "test": "MetAP2 fluorescence assay", "assay_type": "biochemical", "settings": "for IC50 of compound/IC50 of fumagillin: human MetAP2", "protocol": "Based on the available crystal structures of MetAP2 complexes, the fumagillol core binds in a crowded environment, forming exquisite electrostatic interactions. Therefore, there is little room for the core fumagillol scaffold to adopt a different mode of binding. In contrast, the R group at C-6 can vary substantially because it is mostly solvent exposed. The L groups bind in a narrow site at the active-site entrance.\nRecombinant human MetAP2 (Bio-Techne/R&D Systems) was diluted to 10 μg/ml in the assay buffer (50 mM HEPES, 0.1 mM CoCl2, 100 mM NaCl, pH 7.5). The substrate H-Met-Gly-Pro-7-amido-4-methylcoumarin (Bio-Techne/R&D Systems) was diluted to 500 μM with 2 μg/ml of the coupling enzyme, recombinant human dipeptidyl peptidase 4 (Bio-Techne/R&D Systems), in assay buffer. Fifty microliters of 10-μg/ml recombinant human MetAP2 was loaded into a flat-bottom black 96-well plate (Greiner Bio), and the reaction was initiated by adding 50 μl of the substrate/dipeptidyl peptidase 4 mixture. The reaction mixture was incubated at room temperature for 10 min, and the fluorescence was measured for 5 min at excitation and emission wavelengths of 380 nm and 460 nm, respectively, in the kinetic mode. For IC50 determination, 0.5 μl inhibitor solution was added to the reaction mixture. […] The reaction rates were fitted to a 4-parameter logistic nonlinear regression model using the KaleidaGraph tool, yielding the IC50 values and standard error."}, "in vitro": {"test": "in vitro", "settings": "human; for efflux ratio at 120 min, 10 µM: Caco-2, pH 7.4; for Papp at 120 min, 10 µM: Caco-2, pH 7.4, Mean ± SE Papp", "source_text": "Next, we tested the permeation of the compounds across polarized Caco-2 cell monolayers, a method that is widely used as an in vitro model of the human small intestinal mucosa to predict the absorption of orally administered drugs ([63], [64]). With noninvasive intestinal infections, there is no need to establish a high plasma concentration. Since a high rate of uptake through the host gut lining could increase compound toxicity, we sought to reduce gut absorption. […] Both apical-to-basal and basal-to-apical permeation values were measured to obtain information about efflux. […] The efflux machinery is currently unknown.\nPassage 36 Caco-2 cells were used. The cells were cultured in Dulbecco’s modified Eagle’s medium (DMEM; 5 ml of 100 mM sodium pyruvate, 5 ml of 100× nonessential amino acids, 5 ml of penicillin-streptomycin, and 100 ml of heat-inactivated fetal bovine serum added to 385 ml of DMEM aseptically and mixed thoroughly), pH 7.4, at 37°C in 5% CO2. DMEM (250 μl) was added to the basal compartment of 96-well multiscreen Caco-2 cell plate consisting of high-pore-density polycarbonate (Millipore) with a 0.4-μm pore size and a 0.11-cm^2 active membrane area. The cells were seeded at a density of 12,000 cells/well (0.16 × 10^6 cells/ml) in the apical wells, with one well containing only medium as blank. The Caco-2 cell plate was placed in a CO2 incubator at 37°C for cell proliferation. On the day of assay, the medium was removed, washed twice with Hanks balanced salt solution (HBSS) buffer supplemented with 2% bovine serum albumin (BSA), pH 7.4, and incubated with the HBSS buffer for 30 min at 37°C. Wells with transepithelial electrical resistance values of greater than 230 Ω · cm^2 were selected for the experiments. […] The assay was performed in duplicate.\nSeventy-five microliters of the test compounds was added to the apical wells, and 250 μl of HBSS buffer with 2% BSA was added to the basal wells. The plate was incubated in a CO2 incubator with shaking on a plate shaker at 150 rpm for 120 min, after which 25 μl of the basal samples was collected and processed.\nTwo hundred fifty microliters of test compounds was added to the basal wells, and 75 μl of HBSS buffer with 2% BSA was added to the apical wells. The plate was incubated in a CO2 incubator with shaking on a plate shaker at 150 rpm for 120 min, after which 25 μl of the apical samples was collected and processed.\nFor sample processing, a single-point calibration curve in HBSS buffer with 2% BSA was used. Donor samples were diluted 1:1 with HBSS containing 2% BSA, and receiver samples were diluted with 1:1 HBSS buffer and precipitated with 200 μl of acetonitrile containing internal standard. The samples were vortexed for 5 min at 1,000 rpm and centrifuged at 4,000 rpm for 10 min. One hundred microliters of the supernatant was diluted with 200 μl of water and analyzed by LC-MS/MS (with a Shimadzu ultrafast liquid chromatograph and an API 4000 LC-MS/MS system).\nThe apparent permeation coefficients (Papp) were calculated as Papp = (dQ/dT) × (1/C0) × (1/A), where dQ is the amount permeated to the receiver compartment of the 96-well plate, dT is the time of compound incubation, C0 is the initial compound concentration in the donor compartment of the well, and A is the surface area of the monolayer."}, "pH 3 degradation test": {"test": "pH 3 degradation test", "assay_type": "physicochemical", "protocol": "The dramatic improvement in stability is not surprising, because the ester group of fumagillin is susceptible to hydrolysis at low pH. […] This should enable the administration of lower doses, reducing toxicity risks.\nFor accelerated temperature degradation tests at 75% relative humidity and at laboratory uncontrolled relative humidity, fumagillin and compounds 3 and 9 were incubated at 37°C under either controlled or uncontrolled humidity, and the samples were analyzed by HPLC every week for 4 weeks. Measurements were made in duplicate. Area-under-the-curve values were calculated to derive the percentage of compound remaining. For pH degradation, the compounds were dissolved in DMSO and mixed with pH 3.0 buffer. The samples were incubated at 25°C for up to 48 h. Samples were analyzed by HPLC every 2 h for the first 8 h and then after 24 and 48 h."}, "[1]": {"settings": "recombinant human MetAP2, fluorescence assay, read-out: Mean ± SE IC50, inhibition of human MetAP2"}}, "note": "Like-named read-outs stand apart in the source and are kept apart here.", "data": [{"smiles": "CO[C@@H]1[C@H](OC(=O)/C=C/C=C/C=C/C=C/C(=O)O)CC[C@]2(CO2)[C@H]1[C@@]1(C)O[C@@H]1CC=C(C)C", "note": "[Fumagillin, reference compound]", "values": [{"measurement": "IC50 of compound/IC50 of fumagillin", "setting": "human MetAP2", "value": 1}, {"measurement": "IC50", "setting": "human MetAP2; [1]", "value": "0.4 ± 0.03", "unit": "nM"}, {"measurement": "efflux ratio at 120 min, 10 µM", "setting": "in vitro", "value": 2.13}, {"measurement": "Papp at 120 min, 10 µM", "setting": "in vitro; apical to basal, Caco-2, 10 μM, 120 min", "value": "23.7 ± 2.52", "unit": "×10⁻⁶ cm/s"}, {"measurement": "Papp at 120 min, 10 µM", "setting": "in vitro; basal to apical, Caco-2, 10 μM, 120 min", "value": "48.8 ± 9.13", "unit": "×10⁻⁶ cm/s"}, {"measurement": "half-life", "setting": "pH 3 degradation test; pH 3.0 buffer, pH 3, 25°C, read-out: Mean ± SE half-life at pH 3 and 25°C (converted)", "value": "85.2 ± 3", "unit": "min"}]}, {"smiles": "COC1C(OC(=O)NC(=O)CN2CCOCC2)CCC2(CO2)C1C1(C)OC1CC=C(C)C", "note": "(stereo not shown) [Compound 3]", "values": [{"measurement": "IC50 of compound/IC50 of fumagillin", "setting": "human MetAP2", "value": 1.68}, {"measurement": "IC50", "setting": "human MetAP2; [1]", "value": "0.67 ± 0.02", "unit": "nM"}, {"measurement": "efflux ratio at 120 min, 10 µM", "setting": "in vitro", "value": 1.95}, {"measurement": "Papp at 120 min, 10 µM", "setting": "in vitro; apical to basal", "value": "15.8 ± 0.94", "unit": "×10⁻⁶ cm/s"}, {"measurement": "Papp at 120 min, 10 µM", "setting": "in vitro; basal to apical", "value": "30.4 ± 4.35", "unit": "×10⁻⁶ cm/s"}, {"measurement": "half-life", "setting": "pH 3 degradation test; buffer, pH 3", "value": "1040 ± 136", "unit": "min"}]}, {"smiles": "CO[C@@H]1[C@H](OC(=O)Nc2ccc(C(=O)O)cc2)CC[C@]2(CO2)[C@H]1[C@@]1(C)O[C@@H]1CC=C(C)C", "note": "[Compound 9, 4-(((((3R,4S,5S,6R)-5-methoxy-4-((2R,3R)-2-methyl-3-(3-methylbut-2-en-1-yl)oxiran-2-yl)-1-oxaspiro[2.5]octan-6-yl)oxy)carbonyl)amino)benzoic acid]", "values": [{"measurement": "IC50", "setting": "human MetAP2", "value": "1.1 ± 0.3", "unit": "nM"}, {"measurement": "Papp at 120 min, 10 µM", "setting": "in vitro; apical to basal", "value": "12.6 ± 0.63", "unit": "×10⁻⁶ cm/s"}, {"measurement": "Papp at 120 min, 10 µM", "setting": "in vitro; basal to apical", "value": "23.6 ± 8.14", "unit": "×10⁻⁶ cm/s"}, {"measurement": "half-life", "setting": "pH 3 degradation test; buffer, pH 3", "value": "2590 ± 87", "unit": "min"}]}]}
